Experimental data reported in PubChem BioAssay (NCI).
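Grown in 96-well plates, cells were treated for 48 hours with each compound at five concentrations. Insufficient inhibition: endpoint recorded as highest concentration tested. Definition used: TGI = concentration required for complete inhibition of growth.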

How the values were obtained:
Experiment in all cases: NCI anticancer screen, dose series, 48 h
PC-3 prostate = system: PC-3 prostate
T-47D breast = system: T-47D breast
SK-OV-3 ovarian = system: SK-OV-3 ovarian
HCC-2998 colon = system: HCC-2998 colon
HCT-15 colon = system: HCT-15 colon
OVCAR-5 ovarian = system: OVCAR-5 ovarian
786-0 renal = system: 786-0 renal
EKVX NSCLC = system: EKVX NSCLC
RPMI-8226 leukemia = system: RPMI-8226 leukemia
MDA-N = system: MDA-N
SF-268 CNS = system: SF-268 CNS
HT29 colon = system: HT29 colon
UACC-257 melanoma = system: UACC-257 melanoma
NCI/ADR-RES ovarian = system: NCI/ADR-RES ovarian
KM12 colon = system: KM12 colon
LOX IMVI melanoma = system: LOX IMVI melanoma
SK-MEL-2 melanoma = system: SK-MEL-2 melanoma
IGROV1 ovarian = system: IGROV1 ovarian
U251 CNS = system: U251 CNS
A498 renal = system: A498 renal
MCF7 breast = system: MCF7 breast
HOP-62 NSCLC = system: HOP-62 NSCLC
CCRF-CEM leukemia = system: CCRF-CEM leukemia
ACHN renal = system: ACHN renal
MOLT-4 leukemia = system: MOLT-4 leukemia
K-562 leukemia = system: K-562 leukemia
NCI-H23 lung = system: NCI-H23 lung
UO-31 renal = system: UO-31 renal
HCT-116 colon = system: HCT-116 colon
SW-620 colon = system: SW-620 colon
SK-MEL-5 melanoma = system: SK-MEL-5 melanoma
NCI-H226 lung = system: NCI-H226 lung
SNB-19 CNS = system: SNB-19 CNS
A549 NSCLC = system: A549 NSCLC
OVCAR-3 ovarian = system: OVCAR-3 ovarian
MALME-3M melanoma = system: MALME-3M melanoma
NCI-H460 lung = system: NCI-H460 lung
HL-60(TB) leukemia = system: HL-60(TB) leukemia
NCI-H522 lung = system: NCI-H522 lung
SN12C renal = system: SN12C renal
SF-295 CNS = system: SF-295 CNS
HS 578T breast = system: HS 578T breast
MDA-MB-435 = system: MDA-MB-435
CAKI-1 renal = system: CAKI-1 renal
UACC-62 melanoma = system: UACC-62 melanoma
MDA-MB-231 breast = system: MDA-MB-231 breast
SR leukemia = system: SR leukemia
SK-MEL-28 melanoma = system: SK-MEL-28 melanoma
DU-145 prostate = system: DU-145 prostate
BT-549 breast = system: BT-549 breast
TK-10 renal = system: TK-10 renal
OVCAR-8 ovarian = system: OVCAR-8 ovarian
COLO 205 colon = system: COLO 205 colon
SF-539 CNS = system: SF-539 CNS
M14 melanoma = system: M14 melanoma
OVCAR-4 ovarian = system: OVCAR-4 ovarian
SNB-75 CNS = system: SNB-75 CNS
RXF 393 renal = system: RXF 393 renal
HOP-92 NSCLC = system: HOP-92 NSCLC

`COC(=O)CN(CC(=O)NCCNC(=O)OC(C)(C)C)C1CCCCC1N(CC(=O)OC)CC(=O)OC` (stereo unspecified) showed a TGI (PC-3 prostate) of over 100 µM, a TGI (T-47D breast) of over 100 µM and a TGI (SK-OV-3 ovarian) of over 100 µM. The TGI (HCC-2998 colon) was over 100 µM, the TGI (HCT-15 colon) was over 100 µM and the TGI (OVCAR-5 ovarian) was over 100 µM. It also gave a TGI (786-0 renal) of over 100 µM, a TGI (EKVX NSCLC) of over 100 µM and a TGI (RPMI-8226 leukemia) of over 100 µM. For the same compound, the TGI (MDA-N) was over 100 µM, the TGI (SF-268 CNS) was over 100 µM and the TGI (HT29 colon) was over 100 µM. The TGI (UACC-257 melanoma) was over 100 µM, the TGI (NCI/ADR-RES ovarian) was over 100 µM and the TGI (KM12 colon) was over 100 µM. For the same compound, the TGI (LOX IMVI melanoma) was over 100 µM, the TGI (SK-MEL-2 melanoma) was over 100 µM and the TGI (IGROV1 ovarian) was over 100 µM. It also gave a TGI (U251 CNS) of over 100 µM, a TGI (A498 renal) of over 100 µM and a TGI (MCF7 breast) of over 100 µM. The TGI (HOP-62 NSCLC) was over 100 µM, the TGI (CCRF-CEM leukemia) was over 100 µM and the TGI (ACHN renal) was over 100 µM. The TGI (MOLT-4 leukemia) was over 100 µM, the TGI (K-562 leukemia) was over 100 µM and the TGI (NCI-H23 lung) was over 100 µM. The TGI (UO-31 renal) was over 100 µM, the TGI (HCT-116 colon) was over 100 µM and the TGI (SW-620 colon) was over 100 µM. For the same compound, the TGI (SK-MEL-5 melanoma) was over 100 µM, the TGI (NCI-H226 lung) was over 100 µM and the TGI (SNB-19 CNS) was over 100 µM. For the same compound, the TGI (A549 NSCLC) was over 100 µM, the TGI (OVCAR-3 ovarian) was over 100 µM and the TGI (MALME-3M melanoma) was over 100 µM. It also gave a TGI (NCI-H460 lung) of over 100 µM, a TGI (HL-60(TB) leukemia) of over 100 µM and a TGI (NCI-H522 lung) of over 100 µM. The TGI (SN12C renal) was over 100 µM, the TGI (SF-295 CNS) was over 100 µM and the TGI (HS 578T breast) was over 100 µM. It also gave a TGI (MDA-MB-435) of over 100 µM, a TGI (CAKI-1 renal) of over 100 µM and a TGI (UACC-62 melanoma) of over 100 µM. It also gave a TGI (MDA-MB-231 breast) of over 100 µM, a TGI (SR leukemia) of over 100 µM and a TGI (SK-MEL-28 melanoma) of over 100 µM. It also gave a TGI (DU-145 prostate) of over 100 µM, a TGI (BT-549 breast) of over 100 µM and a TGI (TK-10 renal) of over 100 µM. For the same compound, the TGI (OVCAR-8 ovarian) was over 100 µM, the TGI (COLO 205 colon) was over 100 µM and the TGI (SF-539 CNS) was over 100 µM.
`Cc1cccc2c(N)c3cccc(C(=O)NCC[N+](C)(C)Cc4ccccc4[N+](=O)[O-])c3nc12` was tested, and the TGI (PC-3 prostate) was 45.2 µM, the TGI (T-47D breast) was over 100 µM and the TGI (SK-OV-3 ovarian) was over 95.1 µM. It also gave a TGI (HCC-2998 colon) of over 25.9 µM, a TGI (HCT-15 colon) of over 100 µM and a TGI (OVCAR-5 ovarian) of 60.2 µM. The TGI (786-0 renal) was 12.7 µM, the TGI (EKVX NSCLC) was over 100 µM and the TGI (RPMI-8226 leukemia) was over 58.3 µM. It also gave a TGI (MDA-N) of over 41.4 µM, a TGI (SF-268 CNS) of over 35.2 µM and a TGI (HT29 colon) of 19.8 µM. The TGI (UACC-257 melanoma) was over 70.7 µM, the TGI (NCI/ADR-RES ovarian) was over 37.1 µM and the TGI (KM12 colon) was over 100 µM. It also gave a TGI (LOX IMVI melanoma) of over 100 µM, a TGI (M14 melanoma) of over 40.3 µM and a TGI (SK-MEL-2 melanoma) of over 54.6 µM. It also gave a TGI (IGROV1 ovarian) of over 100 µM, a TGI (U251 CNS) of over 27.6 µM and a TGI (A498 renal) of over 29.3 µM. It also gave a TGI (MCF7 breast) of over 100 µM, a TGI (HOP-62 NSCLC) of over 41.4 µM and a TGI (ACHN renal) of 13.9 µM. For the same compound, the TGI (MOLT-4 leukemia) was 9.34 µM, the TGI (K-562 leukemia) was over 31.8 µM and the TGI (NCI-H23 lung) was 14.1 µM. For the same compound, the TGI (UO-31 renal) was over 28.3 µM, the TGI (HCT-116 colon) was over 100 µM and the TGI (SW-620 colon) was over 53 µM. For the same compound, the TGI (SK-MEL-5 melanoma) was over 41.1 µM, the TGI (NCI-H226 lung) was over 100 µM and the TGI (SNB-19 CNS) was over 100 µM. The TGI (A549 NSCLC) was over 54.5 µM, the TGI (OVCAR-3 ovarian) was over 91.4 µM and the TGI (MALME-3M melanoma) was 25.8 µM. For the same compound, the TGI (NCI-H460 lung) was 16 µM, the TGI (NCI-H522 lung) was 18.5 µM and the TGI (OVCAR-4 ovarian) was over 34.5 µM. It also gave a TGI (SN12C renal) of over 39.9 µM, a TGI (SF-295 CNS) of over 50.1 µM and a TGI (SNB-75 CNS) of 8.82 µM. For the same compound, the TGI (HS 578T breast) was over 31.2 µM, the TGI (MDA-MB-435) was over 46.9 µM and the TGI (CAKI-1 renal) was over 100 µM. For the same compound, the TGI (RXF 393 renal) was over 37.7 µM, the TGI (UACC-62 melanoma) was over 19.7 µM and the TGI (MDA-MB-231 breast) was over 55.6 µM. For the same compound, the TGI (SR leukemia) was 2.09 µM, the TGI (SK-MEL-28 melanoma) was over 71.1 µM and the TGI (HOP-92 NSCLC) was 49.5 µM. The TGI (DU-145 prostate) was over 100 µM, the TGI (BT-549 breast) was over 39 µM and the TGI (TK-10 renal) was over 20 µM. The TGI (OVCAR-8 ovarian) was over 30.7 µM, the TGI (COLO 205 colon) was over 39.7 µM and the TGI (SF-539 CNS) was over 32.5 µM.
